# Test results: patent US20130281512A1, “AGENTS FOR TREATING DISORDERS INVOLVING MODULATION OF RYANODINE RECEPTORS” (LES LABORATOIRES SERVIER, priority 2012, published 2013)
# Where two headings read alike, the source gives them in different places.
# How the values were obtained:
# RyR1 = target: T1, RyR1 (Mus musculus, UniProt E9PZQ0); test: Calstabin1 rebinding to RyR1 in isoproterenol treated mice; type: in vivo; details: isoproterenol 0.5 mg/kg/hr plus compound in osmotic pumps, five days; compared with 3.6 mM S36
# T1 construct: RyR1 from aged (24 months) mice is oxidized, cysteine-nitrosylated, and depleted of calstabin1; host or cells: mice (in vivo)
# T1 sequence (E9PZQ0 whole entry): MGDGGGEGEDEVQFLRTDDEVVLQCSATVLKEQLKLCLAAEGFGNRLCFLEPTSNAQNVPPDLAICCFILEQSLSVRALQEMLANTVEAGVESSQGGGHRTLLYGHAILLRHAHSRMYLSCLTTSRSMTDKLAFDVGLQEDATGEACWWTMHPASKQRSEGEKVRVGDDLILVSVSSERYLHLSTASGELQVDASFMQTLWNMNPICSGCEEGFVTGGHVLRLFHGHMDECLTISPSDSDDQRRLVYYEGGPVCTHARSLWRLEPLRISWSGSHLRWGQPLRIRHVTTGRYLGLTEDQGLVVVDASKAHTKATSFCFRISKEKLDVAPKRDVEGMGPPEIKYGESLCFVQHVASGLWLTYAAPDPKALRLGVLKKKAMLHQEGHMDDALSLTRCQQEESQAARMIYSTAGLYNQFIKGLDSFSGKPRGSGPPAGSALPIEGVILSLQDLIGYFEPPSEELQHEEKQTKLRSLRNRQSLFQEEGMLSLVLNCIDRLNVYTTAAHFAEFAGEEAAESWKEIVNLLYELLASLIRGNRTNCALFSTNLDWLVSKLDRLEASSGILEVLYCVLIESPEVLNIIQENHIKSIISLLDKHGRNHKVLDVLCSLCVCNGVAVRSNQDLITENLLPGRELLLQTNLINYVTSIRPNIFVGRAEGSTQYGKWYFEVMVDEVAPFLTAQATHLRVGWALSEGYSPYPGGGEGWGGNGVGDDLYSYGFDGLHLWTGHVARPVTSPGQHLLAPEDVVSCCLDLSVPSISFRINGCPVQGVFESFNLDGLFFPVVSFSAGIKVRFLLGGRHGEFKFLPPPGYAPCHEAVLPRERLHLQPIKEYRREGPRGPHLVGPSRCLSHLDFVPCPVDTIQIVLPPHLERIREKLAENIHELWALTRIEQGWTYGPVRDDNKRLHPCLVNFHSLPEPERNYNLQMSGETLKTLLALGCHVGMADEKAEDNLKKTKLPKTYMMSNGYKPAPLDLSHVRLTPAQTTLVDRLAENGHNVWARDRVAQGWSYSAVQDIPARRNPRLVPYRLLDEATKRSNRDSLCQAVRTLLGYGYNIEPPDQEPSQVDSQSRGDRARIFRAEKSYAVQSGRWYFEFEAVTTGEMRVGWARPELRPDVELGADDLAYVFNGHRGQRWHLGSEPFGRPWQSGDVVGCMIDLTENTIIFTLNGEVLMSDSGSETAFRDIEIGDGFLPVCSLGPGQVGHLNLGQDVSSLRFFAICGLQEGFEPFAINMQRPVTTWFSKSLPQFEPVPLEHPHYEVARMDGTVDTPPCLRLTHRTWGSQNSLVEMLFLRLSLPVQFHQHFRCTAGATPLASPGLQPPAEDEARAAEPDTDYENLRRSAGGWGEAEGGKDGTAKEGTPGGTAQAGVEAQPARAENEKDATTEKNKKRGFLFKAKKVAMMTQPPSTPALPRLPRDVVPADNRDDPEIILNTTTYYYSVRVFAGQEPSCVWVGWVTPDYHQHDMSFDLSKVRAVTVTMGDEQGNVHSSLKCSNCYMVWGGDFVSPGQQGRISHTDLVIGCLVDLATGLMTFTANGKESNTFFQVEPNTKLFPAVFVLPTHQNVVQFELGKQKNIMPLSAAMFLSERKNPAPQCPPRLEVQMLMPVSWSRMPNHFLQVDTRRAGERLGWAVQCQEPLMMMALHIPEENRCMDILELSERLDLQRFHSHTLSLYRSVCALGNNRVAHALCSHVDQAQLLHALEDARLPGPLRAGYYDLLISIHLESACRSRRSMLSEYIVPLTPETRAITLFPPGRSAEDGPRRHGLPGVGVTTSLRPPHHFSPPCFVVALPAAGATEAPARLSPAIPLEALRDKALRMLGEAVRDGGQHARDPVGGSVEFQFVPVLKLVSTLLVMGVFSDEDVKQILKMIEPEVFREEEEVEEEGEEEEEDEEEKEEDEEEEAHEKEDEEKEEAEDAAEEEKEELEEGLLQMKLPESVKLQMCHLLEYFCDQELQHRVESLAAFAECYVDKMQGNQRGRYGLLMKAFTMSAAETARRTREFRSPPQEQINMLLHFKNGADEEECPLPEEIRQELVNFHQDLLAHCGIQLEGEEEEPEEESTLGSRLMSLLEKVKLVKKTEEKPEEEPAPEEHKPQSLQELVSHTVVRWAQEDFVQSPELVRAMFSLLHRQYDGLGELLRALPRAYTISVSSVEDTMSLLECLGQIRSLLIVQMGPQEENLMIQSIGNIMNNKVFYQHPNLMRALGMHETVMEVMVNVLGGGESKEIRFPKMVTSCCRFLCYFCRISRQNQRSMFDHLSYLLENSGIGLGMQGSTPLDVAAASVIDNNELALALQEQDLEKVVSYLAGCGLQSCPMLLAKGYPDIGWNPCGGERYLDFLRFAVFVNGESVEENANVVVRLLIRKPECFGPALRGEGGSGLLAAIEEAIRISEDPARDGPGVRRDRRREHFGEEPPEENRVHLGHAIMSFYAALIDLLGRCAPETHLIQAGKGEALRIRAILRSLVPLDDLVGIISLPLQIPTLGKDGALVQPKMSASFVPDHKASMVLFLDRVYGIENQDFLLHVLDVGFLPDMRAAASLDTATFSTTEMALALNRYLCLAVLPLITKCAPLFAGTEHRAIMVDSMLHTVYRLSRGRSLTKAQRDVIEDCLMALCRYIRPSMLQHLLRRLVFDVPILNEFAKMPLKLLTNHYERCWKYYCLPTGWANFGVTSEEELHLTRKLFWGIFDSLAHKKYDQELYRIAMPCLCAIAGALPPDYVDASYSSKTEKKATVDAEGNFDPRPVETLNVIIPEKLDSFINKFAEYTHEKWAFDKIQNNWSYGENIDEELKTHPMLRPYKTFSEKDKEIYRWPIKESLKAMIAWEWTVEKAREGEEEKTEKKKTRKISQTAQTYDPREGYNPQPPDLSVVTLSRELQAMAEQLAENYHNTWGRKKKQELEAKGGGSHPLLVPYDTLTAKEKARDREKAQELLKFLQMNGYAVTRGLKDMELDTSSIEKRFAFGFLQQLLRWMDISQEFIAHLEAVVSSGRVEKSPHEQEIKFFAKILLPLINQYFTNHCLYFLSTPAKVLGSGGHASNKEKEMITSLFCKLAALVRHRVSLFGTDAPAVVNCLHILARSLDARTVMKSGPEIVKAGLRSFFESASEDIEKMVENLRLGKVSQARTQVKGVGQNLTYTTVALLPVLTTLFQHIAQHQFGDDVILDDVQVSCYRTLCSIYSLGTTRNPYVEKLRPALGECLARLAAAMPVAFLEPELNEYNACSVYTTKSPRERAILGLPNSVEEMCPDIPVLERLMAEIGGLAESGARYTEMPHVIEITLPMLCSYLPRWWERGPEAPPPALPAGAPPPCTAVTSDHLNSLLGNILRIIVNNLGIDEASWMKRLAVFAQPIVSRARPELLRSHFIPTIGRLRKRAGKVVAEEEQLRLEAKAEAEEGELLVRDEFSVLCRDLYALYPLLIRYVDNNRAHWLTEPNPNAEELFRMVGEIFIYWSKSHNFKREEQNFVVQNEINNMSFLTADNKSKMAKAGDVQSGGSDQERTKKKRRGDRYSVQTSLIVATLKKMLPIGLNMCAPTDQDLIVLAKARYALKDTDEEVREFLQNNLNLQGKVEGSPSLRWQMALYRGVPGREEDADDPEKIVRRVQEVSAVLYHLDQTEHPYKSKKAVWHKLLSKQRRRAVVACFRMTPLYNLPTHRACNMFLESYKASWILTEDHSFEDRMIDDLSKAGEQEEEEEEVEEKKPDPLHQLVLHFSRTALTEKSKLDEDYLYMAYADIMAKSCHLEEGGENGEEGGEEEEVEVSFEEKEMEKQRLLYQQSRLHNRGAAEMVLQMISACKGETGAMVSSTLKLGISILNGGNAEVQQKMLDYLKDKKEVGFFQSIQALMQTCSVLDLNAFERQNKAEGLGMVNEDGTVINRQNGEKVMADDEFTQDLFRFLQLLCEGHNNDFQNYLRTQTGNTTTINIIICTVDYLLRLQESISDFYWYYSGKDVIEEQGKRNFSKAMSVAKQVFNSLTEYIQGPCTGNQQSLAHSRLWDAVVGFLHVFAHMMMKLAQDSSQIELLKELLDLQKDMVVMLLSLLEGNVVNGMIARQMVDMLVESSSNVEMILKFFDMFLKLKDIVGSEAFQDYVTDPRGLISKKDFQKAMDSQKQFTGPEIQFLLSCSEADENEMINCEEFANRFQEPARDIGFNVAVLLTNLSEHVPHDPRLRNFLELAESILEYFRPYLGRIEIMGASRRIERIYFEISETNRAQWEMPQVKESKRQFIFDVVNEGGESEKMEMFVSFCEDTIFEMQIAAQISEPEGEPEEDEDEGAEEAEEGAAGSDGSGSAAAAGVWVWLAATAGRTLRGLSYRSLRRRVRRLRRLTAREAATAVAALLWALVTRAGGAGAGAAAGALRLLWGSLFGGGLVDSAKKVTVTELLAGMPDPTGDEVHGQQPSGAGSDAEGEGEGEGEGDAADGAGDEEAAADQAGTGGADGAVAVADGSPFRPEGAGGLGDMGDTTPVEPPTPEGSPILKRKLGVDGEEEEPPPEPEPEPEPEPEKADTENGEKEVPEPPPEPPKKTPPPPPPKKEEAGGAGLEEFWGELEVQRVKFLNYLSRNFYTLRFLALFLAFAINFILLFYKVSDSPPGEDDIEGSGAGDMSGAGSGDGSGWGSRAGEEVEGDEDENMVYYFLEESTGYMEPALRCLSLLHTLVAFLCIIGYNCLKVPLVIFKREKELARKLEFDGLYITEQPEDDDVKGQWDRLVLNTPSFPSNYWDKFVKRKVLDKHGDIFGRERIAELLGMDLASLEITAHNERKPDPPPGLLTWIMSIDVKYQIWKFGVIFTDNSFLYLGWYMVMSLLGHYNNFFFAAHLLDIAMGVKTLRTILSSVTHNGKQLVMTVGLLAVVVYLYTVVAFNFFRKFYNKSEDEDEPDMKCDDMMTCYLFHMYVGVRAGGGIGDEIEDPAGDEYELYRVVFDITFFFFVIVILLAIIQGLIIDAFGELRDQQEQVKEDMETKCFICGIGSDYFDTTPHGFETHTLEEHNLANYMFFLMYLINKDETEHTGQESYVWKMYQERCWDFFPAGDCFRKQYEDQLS
# T1 sequence (P26883 2-108 partner limits assumed): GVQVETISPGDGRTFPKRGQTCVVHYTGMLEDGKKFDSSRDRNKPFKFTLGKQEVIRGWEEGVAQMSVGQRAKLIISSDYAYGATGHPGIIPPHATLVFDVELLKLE
# From the text: Isoproterenol, a beta adrenergic receptor agonist, induces heart failure in mice via overstimulation of the beta adrenergic receptor. Concurrent with this is the activation of PKA, phosphorylation of the RyR2 on the SR, and decreased interaction of calstabin2 (FKBP12.6) to RyR2. A similar cascade of events occurs in skeletal muscle, wherein RyR1 is phosphorylated, leading to decreased binding of calstabin1 (FKBP12) to RyR1.
# As described in detail in International publication no. WO2008/064264, the contents of which are incorporated by reference herein, chronic isoproterenol treatment to a wild-type mouse offers a fast and reliable method for inducing changes in RyR biochemistry that could be readily quantified. These changes include increased RyR phosphorylation and concomitant decreased calstabin binding.
# C57Bl/6 mice were maintained and studied according to approved protocols. The synthetic beta-adrenergic agonist, isoproterenol (ISO) was obtained from Sigma (165627) and prepared as a 100 mg/ml stock in water. […]
# The loaded osmotic pumps were implanted subcutaneously by the following steps. The recipient mouse was anesthetized with 1.5-2% isoflurane in O2 administered at 0.6 L/min, and its weight was then measured and recorded. […]
# [1] = system: ischemia-reperfusion induced heart failure; test: Model of chronic post-ischemic heart failure in rat (ischemia-reperfusion injury); type: in vivo
# Method: Chronic heart failure was induced in male wistar rats (224-240 g, 10-11 weeks of age) by ischemia-reperfusion (I/R) injury. For I/R protocol, the left anterior descending (LAD) coronary artery was occluded for 1 h. Drug treatment (5 mg/kg/d or 10 mg/kg/d in drinking water) was initiated 1 week after reperfusion and was maintained for a 3 month study period. […] Cardiac specimens were also analyzed to assess hypertrophy and collagen content. The study design is depicted in FIG. 3. Experiments were performed in a blinded manner. On parameters measured over time, comparison of Sham versus Vehicle and comparison of drug treatments are analyzed by 2 way ANOVAs with repeated measures. On parameters measured at sacrifice and morphometry, comparisons of Sham versus Vehicle are analyzed by t-test and comparisons of drug treatments by 1-way ANOVA followed by Dunnett test.
# [2] = Morning blood exposure (drug plasma concentrations) in mdx and WT mice; type: in vivo; details: mouse, oral, read-out: Morning blood exposure (average±SEM)
# Method: Distance traveled (Km/day) over a 24 hr period was analyzed as an index of improved functional activity (see, DMD_M.2.1.002 SOP at http://www.treat-nmd.eu/). At the conclusion of the study, Extensor digitorum longus (EDL) muscle was isolated for muscle force analysis as further described hereinbelow. Blood was collected from each mouse by retro-orbital bleeds at the end of the study (after end of dark cycle—about 7 AM) to assess drug plasma concentrations. Experiments were blinded.
# rat hepatocytes = test: Metabolic stability in rat hepatocytes; type: in vitro ADME
# Method: Compound solubilization: Stock solutions were made in DMSO, and working solutions in William medium containing 1/10 rat plasma or 1/4 human plasma.
# Metabolic stability determination: Compounds were incubated at 10^−7 M with isolated hepatocytes (6E+5 cells/ml for rat hepatocytes and 4E+5 cells/ml for human hepatocytes) at 37° C. in plasma from the same species diluted in Wiliams medium (1/10 dilution for rat and 1/4 dilution for human). Sampling times were performed at 0, 10, 20, 30, 60 and 120 min and enzymatic reaction stopped with methanol (v/v). Proteins were precipitated by centrifugation and the supernatant was analyzed by LC/MS/MS. Clint expressed as ml/min/g protein were calculated as for hepatic microsomes using a ratio of 0.134 mg protein/ml for 4E+5 cells/ml for human and 0.201 mg protein/ml for 6E+5 cells/ml for rat. The presence of the reference drug and the potential metabolite was checked by LC/MS/MS during the assay in each sample.
# [3] = 5 and 10 mg/kg/d in drinking water, one to three months, vs vehicle
# [4] = 5 and 10 mg/kg/d, invasive hemodynamics at 3 months, vs vehicle
compound,measurement,setting,value
"COc1ccc2c(c1)CN(Cc1ccc(C(=O)O)cc1)CCS2 [Compound 1, 4-((7-Methoxy-2,3-dihydrobenzo[f][1,4]thiazepin-4(5H)-yl)methyl)benzoic acid]",levels of calstabin1 bound to RyR1 in skeletal muscle,RyR1,enhanced levels of calstabin1 bound to RyR1
same,systolic and diastolic cardiac function,"[1]; 5 mg/kg/d in drinking water, 3 months",beneficial effects
same,interstitial collagen content,"[1]; 5 and 10 mg/kg/d in drinking water, 3 months, vs vehicle",reduced
same,Ejection Fraction (EF),[1]; [3],significantly increased
same,LVEDV (LV end diastolic volume),[1]; [3],decreased
same,LVESV (LV end systolic volume),[1]; [3],decreased
same,body weight (BW),"[1]; 5 and 10 mg/kg/d, 3 months",No effects
same,hypertrophy (LV weight),"[1]; 5 and 10 mg/kg/d, 3 months",No effects
same,infarct size,"[1]; 5 and 10 mg/kg/d, 3 months",No effects
same,LV systolic pressure,"[1]; 5 and 10 mg/kg/d, invasive hemodynamics at 3 months",no statistically significant change
same,LV dP/dt max,[1]; [4],preservation
same,LV dP/dt min,[1]; [4],preservation
same,concentration at 4 weeks,"[2]; C57BL/6 (WT), 50 mg/kg/d-dosed WT mice",72.8 ± 7 µM
same,concentration at 4 weeks,"[2]; C57BL/10ScSn-DMD^mdx/J (mdx), 5 mg/kg/d-dosed mdx mice",3.3 ± 0.4 µM
same,concentration at 4 weeks,"[2]; C57BL/10ScSn-DMD^mdx/J (mdx), 10 mg/kg/d-dosed mdx mice",10.7 ± 0.9 µM
same,concentration at 4 weeks,"[2]; C57BL/10ScSn-DMD^mdx/J (mdx), 50 mg/kg/d-dosed mdx mice",52.8 ± 1.7 µM
same,MF rat %,rat hepatocytes,90%
same,Clint,"rat hepatocytes; 6.00E+05 cells/ml, 10^-7 M",5 ml/min/gprot
